# From US12202805B2, “Process for preparing (5S)-{[2-(4-carboxyphenyl)ethyl] |2-(2-{|3-chloro-4'-(trifluoromethyl)biphenyl-4-yl]methoxy}phenyl)ethyl]aminol-5,6,7,8-tetrahydroquinoline-2-carboxylic acid and its crystalline forms for use as pharmaceutically active compound” (Bayer Aktiengesellschaft, priority 2021, dated 2025)
# How the values were obtained:
# Caco-2 permeability test = type: in vitro ADME, human; conditions: human, Caco-2, 2.4 μM
# Procedure: E-3. Further Characterization E-3.1 Caco-2 Permeability Test
# The in vitro permeation of a test compound across a Caco-2 cell monolayer is a well-established assay system to predict the permeability from the gastro-intestinal tract (1). The permeability of the compounds of the present invention in such Caco-2 cells was determined as described below:
# Human caco-2 cells were seeded on 24-well insert plates and were allowed to grow for 14-16 days. For permeability studies, the test compounds were dissolved in DMSO and diluted to the final test concentration of 2 μM with transport buffer [Hanks' Buffered Salt Solution, Gibco/Invitrogen, further supplemented with glucose and HEPES]. For determination of the apical to basolateral permeability (PappA-B), the test compound solution was added to the apical side of the cell monolayer and transport buffer to the basolateral side of the monolayer; for determination of the basolateral to apical permeability (PappB-A), the test compound solution was added to the basolateral side of the cell monolayer and transport buffer to the apical side of the monolayer. Samples were taken from the donor compartment at the beginning of the experiment to confirm mass balance. After an incubation of 2 h at 37° C., samples were taken from both compartments. Samples were analyzed by LC-MS/MS, and the apparent permeability coefficients were calculated. Lucifer Yellow permeability was assayed for each cell monolayer to ensure cell monolayer integrity, and the permeability of Atenolol (low permeability marker) and Sulfasalazine (marker for active excretion) was determined for each batch as quality control.
# [1] = system: patients with severe pulmonary hypertension; conditions: cited from earlier work
# [2] = system: thromboxane A2 challenged PAH-minipig; assay: Haemodynamics in the anesthetized thromboxane challenged minipig, inhaled nebulized solution (PAP, BP); type: in vivo, Göttingen Minipigs; conditions: 10 μg/kg nominal dose inhaled, mean
# Procedure: E-1 Haemodynamics in the Anesthetized Thromboxane Challenged Minipig
# Lung Selectivity and Duration of Action
# Healthy Göttingen Minipigs® Ellegaard (Ellegaard, Denmark) of both sexes and having a weight of 2-6 kg were used. The animals were sedated by i.m. administration of about 25 mg/kg ketamine and about 10 mg/kg azaperone. Anaesthesia was initiated by i.v. administration of about 2 mg/kg ketamine and about 0.3 mg/kg midazolam. Maintenance of anaesthesia was by i.v. administration of about 7.5-30 mg/kg/h ketamine and about 1-4 mg/kg/h midazolam (rate of infusion 1-4 ml/kg/h) and about 150 μg/kg/h pancuronium bromide (for example Pancuronium-Actavis). After intubation, the animals were ventilated by the ventilator at a constant respiratory volume (10-12 ml/kg, 35 breaths/min; Avea®, Viasys Healthcare, USA, or Engström Carestation, GE Healthcare, Freiburg, Germany) such that an end-tidal CO2 concentration of about 5% was achieved. Ventilation was performed with room air, enriched with about 40% oxygen (normoxia). For the measurement of the haemodynamic parameters such as pulmonary arterial pressure (PAP), blood pressure (BP) and heart rate (HR), catheters were inserted into the carotid artery to measure the blood pressure, and a Swan-Ganz® catheter was introduced in a flow-directed manner via the jugular vein into the pulmonary artery. The haemodynamic signals were recorded and evaluated by means of pressure transducers (Combitransducer, B. Braun, Melsungen, Germany)/amplifiers and Ponemah® as data acquisition software.
# After the instruments have been placed into the animals, continuous infusion of a thromboxane A2 analog was initiated to increase the pulmonary arterial pressure. About 0.3-0.75 μg/kg/min of 9,11-didesoxy-9α,11α-epoxymethanoprostaglandine F2α (U-44069; Sigma, cat. no. D0400, or Cayman Chemical Company, cat. no. 16440), dissolved in physiological saline, were infused to achieve an increase of the mean pulmonary arterial pressure to values of over 25 mmHg. 30 minutes after the start of the infusion, a plateau was reached, and the experiment was started.
# The test substances were administered as i.v. infusion or by inhalation. For the preparation of the solution for inhalation, the following procedure was adopted: For an animal having a weight of 4 kg, to prepare the stock solution (300 μg/kg), 1.2 mg of the test compound were weighed out and dissolved in a total volume of 3 ml (1% DMSO, 99% 0.2% strength citric acid solution, 1 n aqueous sodium hydroxide solution to adjust the pH to 8). The solution was then diluted to the concentration employed using 0.2% strength citric acid which had been adjusted to pH 8 beforehand with aqueous sodium hydroxide solution. In each test, 3 ml of the solution of test compound per 4 kg animal were nebulized in the inhalation arm of the respiratory circuit using the Aeroneb® Pro nebulizer system. The mean nebulization time was about 7 min from the start of the nebulization.
# With respect to a prediction of the duration of action for human studies comparative example 11 was compared in the PAH minipig model after inhaled application to Ventavis® (=Iloprost, 10 μg/kg nominal dose), which we used as a clinical reference. […] Therefore, the duration of action is more than 6 times longer compared to Ventavis in this preclinical animal model.
# [3] = system: animal model of pulmonary hypertension; conditions: cited from earlier work
structure (smiles),measurement,setting,value
COC(=O)N(C)c1c(N)nc(-c2nn(Cc3ccccc3F)c3ncccc23)nc1N [Comparative example 2 (Riociguat)],"efflux ratio at 2 h, 2.4 μM",Caco-2 permeability test,11 ± 3.3
same,"Papp A→B at 2 h, 2.4 μM","Caco-2 permeability test; 2 h at 37° C., read-out: Papp A − B (mean +/− SD)",3.5 ± 0.84 ×10⁻⁶ cm/s
same,"Papp B→A at 2 h, 2.4 μM","Caco-2 permeability test; 2 h at 37° C., read-out: Papp B − A (mean +/− SD)",36.7 ± 7.5 ×10⁻⁶ cm/s
CCCCC[C@H](O)CC[C@@H]1[C@H]2Cc3cccc(OCC(=O)O)c3C[C@H]2C[C@H]1O [Treprostinil],mean change in PVR from baseline,"[1]; inhaled, single administration, historical comparison",approximately −30%
CC#CCC(C)[C@H](O)/C=C/[C@@H]1[C@H]2C/C(=C/CCCC(=O)O)C[C@H]2C[C@H]1O (stereo partly shown) [Ventavis ®],PAP % changes vs prevalue,[2]; time 0 min,0%
same,PAP % changes vs prevalue,[2]; time 10 min,−30.3%
same,PAP % changes vs prevalue,[2]; time 20 min,−20.7%
same,PAP % changes vs prevalue,[2]; time 30 min,−6.9%
same,PAP % changes vs prevalue,[2]; time 40 min,1.7%
same,PAP % changes vs prevalue,[2]; time 50 min,4.9%
CC#CCC(C)[C@H](O)/C=C/[C@@H]1[C@H]2C/C(=C/CCCC(=O)O)C[C@H]2C[C@H]1O (stereo partly shown) [Ventavis],duration of action on haemodynamics (PVR),[1]; clinical studies,about 60 min
O=C(O)CCCCN(CCc1ccccc1OCc1ccc(CCc2ccccc2)cc1)Cc1ccc(C(=O)O)cc1 [comparative example 1],effect on pulmonary arterial pressure,[3]; inhalative administration in the form of microparticles,dose-dependent selective reduction of the pulmonary arterial pressure
same,duration of action,[3]; inhalative administration,did not have a sufficient duration of action
